# Legend:
# [1] = system: wt and cTnI-G203S cardiac myocytes; experiment: Mitochondrial flavoprotein oxidation (autofluorescence) after in vitro peptide exposure; format: cell-based, mouse; conditions: 10 μM BayK(−)
# Method: Fluorescence was measured on a Hamamatsu Orca ER digital camera attached to an inverted Nikon TE2000-U microscope. Fluorescent indicator 5,5′,6,6′-tetrachloro-1,1′,3,3′-tetraethylbenzimidazolylcarbocyanine iodide was used to measure Ψm in cardiac myocytes, as previously described (JC-1, Molecular Probes) ([61]). Autofluorescence was used to measure flavoprotein oxidation in cardiac myocytes based on previously described methods ([13], [29], [62]). Responses to drugs were reported as a percentage increase from the basal average. Detailed methods are provided in SI Appendix. […]
# Autofluorescence […]
# was used to measure flavoprotein oxidation in cardiac myocytes based on previously described methods (ex = 480 nm, em = 535 nm, interval = 1 min, exposure = 1.5 seconds) (4, 6, 7). Carbonyl cyanide-4-(trifluoromethoxy)phenylhydrazone (FCCP, 50 μM, mitochondrial electron transport chain uncoupler) was added at the end of each experiment to increase flavoprotein oxidation confirming signal was mitochondrial in origin. Ratiometric JC-1 or flavoprotein fluorescent signals were quantified by manually tracing myocytes and subtracting an equivalent background region […]
# Responses to drugs were reported as a percentage increase from the basal average. […]
# (10). Cardiac myocytes were treated with relevant drugs in 96 well plates. MTT was added to each well to a final concentration of 0.5 mg/ml and the rate of the increase in absorbance immediately measured using a spectrophotometer at 37°C (PowerWave XS, 570 nm, reference wavelength of 620 nm). The rate of the increase in absorbance in response to treatments was expressed as a percentage of the rate of the increase prior to the addition of treatments. Each n represents number of replicates for each treatment group from cardiac myocytes isolated from a total of 6 wt (AID[S]- TAT), 4 cTnI-G203S (AID[S]-TAT), and 3 (AID-TAT) mice.
# Immunoblot of ICa-L protein
# [2] = system: myocytes isolated from cTnI-G203S mice; experiment: Cell size of myocytes isolated from treated mice; format: in vivo, mouse; conditions: 10 μM 3×/wk/5 wk, compared to AID(S)-TAT
# Method: Cell size was determined as previously described ([64]). Detailed methods are provided in SI Appendix.
# Echocardiographic measurement of left ventricular function were performed on mice under light methoxyflurane anesthesia using an i13L probe on a Vivid 7 Dimension ultrasound system (GE Healthcare, Little Chalfont, United Kingdom) as previously described (4, 7). Echocardiographic measurements were taken on M-mode in triplicate from separate mice at a sweep speed of 200 mm/s. Each n represents the average of quantitative measurements from wt or cTnI-G203S mice for each treatment group. […] FS was calculated by the formula [(LVEDD-LVESD)/EDD] x 100.
# Cell size was determined as previously described (16). […]
# To measure kidney toxicity, urea and creatinine concentration was assessed using QuantiChrom Urea and Creatinine assay kits respectively (BioAssay Systems, Hayward CA). To measure liver toxicity, alanine transaminase (ALT) and aspartate transaminase (AST) concentration was measured using Alanine Transaminase and Aspartate Transaminase assay kits respectively (BioAssay Systems, Hayward CA). […]
sequence,measurement,setting,value
QQLEEDLKGYLDWITQAE [AID-TAT],increase in flavoprotein oxidation in response to BayK(−),"[1]; cTnI-G203S myocytes, 1 μM peptide in vitro",attenuated the response
same,increase in flavoprotein oxidation in response to BayK(−),"[1]; cTnI-G203S myocytes, 10 μM peptide in vitro",significantly attenuated the response
same,increase in flavoprotein oxidation in response to BayK(−),"[1]; wt myocytes, 1 μM peptide in vitro",attenuated the response in cTnI-G203S but not wt myocytes
same,increase in flavoprotein oxidation in response to BayK(−),"[1]; wt myocytes, 10 μM peptide in vitro",significantly attenuated the response
same,echocardiographic parameters and cell size,[2]; 30-wk-old cTnI-G203S mice,"did not significantly improve echocardiographic parameters, or alter cell size"
same,myocyte cell size,[2]; precardiomyopathic cTnI-G203S mice,significantly lower cell size

# — paper PMC7502707, “Characterization and validation of a preventative therapy for hypertrophic cardiomyopathy in a murine model of the disease” (Proceedings of the National Academy of Sciences of the …, 2020)
